Key:
[1] = biological target: T1, N-type calcium channel (NTCC) (Homo sapiens, UniProt Q00975); assay: FLIPR calcium mobilization assay for N-type calcium channel; type: cell-based; conditions: calcium mobilization in vitro assay; differentiated IMR32 cells, 5 μM nitrendipine, 90 mM KCl
T1 construct: host or cells: IMR32 cells differentiated with dibutyryl cAMP and bromodeoxyuridine
Method: Unless noted otherwise, cell culture reagents were purchased from Mediatech of Herndon, Md. IMR32 cells (American Type Culture Collection, ATCC, Manassas, Va.) were routinely cultured in growth medium consisting of minimum essential medium containing 10% fetal bovine serum (FBS, Hyclone, Logan, Utah), 100 U/mL penicillin, 100 μg/mL streptomycin, 2 mM L-glutamine, 1 mM sodium pyruvate, and 1×MEM non-essential amino acids. 80-90% confluent flasks of cells were differentiated using the following differentiation medium: Growth medium plus 1 mM dibutyryl cyclic AMP (Sigma, St. Louis, Mo.), and 2.5 μM bromodeoxyuridine (Sigma). Cells were differentiated for 8 days by replacing differentiation medium every 2-3 days.
FLIPR Calcium Mobilization Assay for N-type Calcium Channel.
One day prior to performing this assay, differentiated IMR32 cells were treated with 1× CellStripper, and seeded on poly-D-lysine-coated 96-well clear-bottom black plates (Becton Dickinson, Franklin Lakes, N.J.) at 200,000 cells/well. On the day of the assay, the cell plates were washed with IMR32 buffer (127 mM NaCl, 1 mM KCl, 2 mM MgCl2, 700 μM NaH2PO4, 5 mM CaCl2, 5 mM NaHCO3, 8 mM HEPES, 10 mM glucose, pH7.4), then pre-stimulated with KCl and loaded as follows: 0.05 mL of IMR32 buffer, 0.05 mL of each compound tested diluted in IMR32 buffer containing 20 μM nitrendipine (Sigma), and 0.1 mL KCl dissolved in IMR32 buffer, plus Fluo-4 were added (3 μM final concentration, Molecular Probes, Eugene, Oreg.). Final test compound concentrations ranged from about 846 pM to about 17 μM, final nitrendipine concentration was 5 μM, and final KCl concentration was 90 mM. After 1 hour, the cells were washed twice with 0.05 mL of each compound tested in nitrendipine-containing IMR32 buffer (no KCl or Fluo-4), and then replaced with 0.1 mL of each compound tested in nitrendipine-containing IMR32 buffer. Plates were then transferred to a Fluorimetric Imaging Plate Reader (FLIPR^96, Molecular Devices, Inc., Sunnyvale, Calif.) for assay. The FLIPR measured basal Fluo-4 fluorescence for 315 seconds (i.e., 5 minutes and 15 seconds), then added 0.1 mL KCl agonist dissolved in IMR32 buffer and measured fluorescence for another 45 seconds. Final test compound concentrations on the cells after FLIPR read ranged from about 846 pM to about 17 μM, final nitrendipine concentration was 5 μM, and final KCl concentration was 90 mM. Data were collected over the entire time course and analyzed using Excel, Graph Pad Prism (version 3.02, Graph Pad, San Diego, Calif.), or an in-house non-linear regression analysis software.

[2] = biological target: T2, L-type calcium channel (LTCC) (Rattus norvegicus, UniProt P22002); assay: FLIPR calcium mobilization assay for L-type calcium channel; type: cell-based; conditions: calcium mobilization in vitro assay; HEK293 cells stably expressing recombinant rat LTCC subunits (α1c, α2δ, β1), 90 mM KCl
T2 construct: The 6.5 kb cDNA encoding the L-type calcium channel α1c subunit was cloned by PCR amplification from rat heart cDNA; expressed in transfected cells
Method: Recombinant human embryonal kidney cells (HEK293, ATCC) stably transfected with either N-type calcium channel (NTCC) subunits (α1b, α2δ, and β3) or L-type calcium channel (LTCC) subunits (α1c, α2δ, and β1) were routinely cultured in growth medium consisting of Dulbecco's Modified Eagles Medium containing 10% FBS, 100 U/mL penicillin, 100 μg/mL streptomycin, 4 mM L-glutamine, 500 μg/mL geneticin (G418), 20 μg/mL Blasticidin S (InVivogen, San Diego, Calif.) and 500 μg/mL zeocin (InVivogen).
FLIPR Calcium Mobilization Assay for L-type Calcium Channel.
One day prior to performing this assay, HEK293 cells stably expressing recombinant rat L-type calcium channel (LTCC) subunits (α1c, α2δ, and β1) were trypsinized, then seeded on poly-D-lysine-coated 96-well clear-bottom black plates (Becton Dickinson, Franklin Lakes, N.J.) at 75,000 cells/well. On the day of the assay, the plates were washed with LTCC wash buffer (127 mM NaCl, 2 mM MgCl2, 700 μM NaH2PO4, 5 mM CaCl2, 5 mM NaHCO3, 8 mM HEPES, 10 mM glucose, pH7.4), then loaded with 0.1 mL of LTCC wash buffer containing Fluo-4 (3 μM final concentration, Molecular Probes, Eugene, Oreg.). After 1 hour, the cells were washed with 0.1 mL LTCC wash buffer and resuspended in 0.05 mL LTCC assay buffer (same composition as LTCC wash buffer). Plates were then transferred to a FLIPR^96 for assay. The FLIPR measured basal Fluo-4 fluorescence for 15 seconds, then added 0.05 mL of each compound tested diluted in LTCC assay buffer at final concentrations ranging from about 846 pM to about 17 μM. Fluo-4 fluorescence was then measured for 5 minutes. 0.1 mL KCl agonist dissolved in LTCC assay buffer was then added to the cells to produce a final concentration of 90 mM KCl, and fluorescence was measured for another 45 seconds. Data were collected over the entire time course and analyzed using Excel, Graph Pad Prism, or an in-house regression analysis software.

T1 sequence (Q00975 whole entry): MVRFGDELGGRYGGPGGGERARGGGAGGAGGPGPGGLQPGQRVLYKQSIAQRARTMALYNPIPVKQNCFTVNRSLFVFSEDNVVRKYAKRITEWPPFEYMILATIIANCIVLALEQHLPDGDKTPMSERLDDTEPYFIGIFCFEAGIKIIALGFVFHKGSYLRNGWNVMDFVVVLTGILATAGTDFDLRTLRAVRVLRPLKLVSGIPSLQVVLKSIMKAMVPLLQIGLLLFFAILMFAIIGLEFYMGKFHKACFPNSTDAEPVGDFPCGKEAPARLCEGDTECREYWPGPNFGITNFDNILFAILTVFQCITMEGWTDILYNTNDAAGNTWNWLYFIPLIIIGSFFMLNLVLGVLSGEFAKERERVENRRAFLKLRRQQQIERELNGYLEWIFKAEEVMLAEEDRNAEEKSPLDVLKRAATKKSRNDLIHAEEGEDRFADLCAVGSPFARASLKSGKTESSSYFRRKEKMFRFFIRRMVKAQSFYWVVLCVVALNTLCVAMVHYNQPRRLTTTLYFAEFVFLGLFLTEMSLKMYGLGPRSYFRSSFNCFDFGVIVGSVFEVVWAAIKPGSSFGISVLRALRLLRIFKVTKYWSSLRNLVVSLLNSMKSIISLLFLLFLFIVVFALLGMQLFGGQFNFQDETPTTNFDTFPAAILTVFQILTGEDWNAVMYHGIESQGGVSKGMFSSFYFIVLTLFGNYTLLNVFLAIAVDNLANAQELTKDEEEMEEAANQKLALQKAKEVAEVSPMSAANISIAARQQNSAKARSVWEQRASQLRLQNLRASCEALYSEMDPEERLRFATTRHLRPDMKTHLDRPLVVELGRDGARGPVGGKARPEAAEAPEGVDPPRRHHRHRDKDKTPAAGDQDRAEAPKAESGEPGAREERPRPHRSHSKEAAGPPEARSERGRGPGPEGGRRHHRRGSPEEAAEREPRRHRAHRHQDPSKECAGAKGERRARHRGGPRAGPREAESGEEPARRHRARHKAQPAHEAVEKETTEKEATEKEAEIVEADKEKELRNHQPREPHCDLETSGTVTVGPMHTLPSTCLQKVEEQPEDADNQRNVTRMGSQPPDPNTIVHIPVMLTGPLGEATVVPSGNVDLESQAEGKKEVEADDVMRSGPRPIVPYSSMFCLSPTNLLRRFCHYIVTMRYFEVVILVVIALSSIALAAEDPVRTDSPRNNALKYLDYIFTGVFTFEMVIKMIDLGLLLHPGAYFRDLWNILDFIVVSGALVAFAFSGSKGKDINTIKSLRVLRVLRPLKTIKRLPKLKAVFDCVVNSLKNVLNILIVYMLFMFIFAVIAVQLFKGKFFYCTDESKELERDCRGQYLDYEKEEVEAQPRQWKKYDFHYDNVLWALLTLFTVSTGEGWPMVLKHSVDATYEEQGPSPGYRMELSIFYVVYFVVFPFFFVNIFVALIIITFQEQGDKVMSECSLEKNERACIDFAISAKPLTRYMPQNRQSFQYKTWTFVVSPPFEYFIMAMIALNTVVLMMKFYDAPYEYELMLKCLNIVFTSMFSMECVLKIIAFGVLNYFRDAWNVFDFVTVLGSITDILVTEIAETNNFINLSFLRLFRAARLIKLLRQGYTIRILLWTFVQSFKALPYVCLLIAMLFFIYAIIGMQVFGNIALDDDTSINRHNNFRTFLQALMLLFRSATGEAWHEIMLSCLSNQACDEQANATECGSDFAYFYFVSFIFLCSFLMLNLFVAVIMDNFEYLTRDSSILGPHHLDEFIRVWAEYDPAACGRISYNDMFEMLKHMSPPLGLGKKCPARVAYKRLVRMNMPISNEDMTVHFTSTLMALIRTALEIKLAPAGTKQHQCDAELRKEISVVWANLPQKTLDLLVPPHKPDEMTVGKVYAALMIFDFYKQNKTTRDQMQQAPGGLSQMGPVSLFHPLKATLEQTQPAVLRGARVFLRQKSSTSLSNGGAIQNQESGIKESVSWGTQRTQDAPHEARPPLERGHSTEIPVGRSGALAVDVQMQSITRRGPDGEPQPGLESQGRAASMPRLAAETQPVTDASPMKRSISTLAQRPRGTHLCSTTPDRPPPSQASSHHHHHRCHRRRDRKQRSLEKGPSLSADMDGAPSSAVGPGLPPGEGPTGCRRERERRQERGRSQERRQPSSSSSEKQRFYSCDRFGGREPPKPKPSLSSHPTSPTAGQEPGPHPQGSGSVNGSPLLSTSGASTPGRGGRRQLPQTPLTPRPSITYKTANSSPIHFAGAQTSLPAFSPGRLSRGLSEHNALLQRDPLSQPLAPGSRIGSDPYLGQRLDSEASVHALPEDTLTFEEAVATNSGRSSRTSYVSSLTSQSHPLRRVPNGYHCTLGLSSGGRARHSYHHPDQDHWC
T1 sequence (P54289 25-956 partner limits assumed): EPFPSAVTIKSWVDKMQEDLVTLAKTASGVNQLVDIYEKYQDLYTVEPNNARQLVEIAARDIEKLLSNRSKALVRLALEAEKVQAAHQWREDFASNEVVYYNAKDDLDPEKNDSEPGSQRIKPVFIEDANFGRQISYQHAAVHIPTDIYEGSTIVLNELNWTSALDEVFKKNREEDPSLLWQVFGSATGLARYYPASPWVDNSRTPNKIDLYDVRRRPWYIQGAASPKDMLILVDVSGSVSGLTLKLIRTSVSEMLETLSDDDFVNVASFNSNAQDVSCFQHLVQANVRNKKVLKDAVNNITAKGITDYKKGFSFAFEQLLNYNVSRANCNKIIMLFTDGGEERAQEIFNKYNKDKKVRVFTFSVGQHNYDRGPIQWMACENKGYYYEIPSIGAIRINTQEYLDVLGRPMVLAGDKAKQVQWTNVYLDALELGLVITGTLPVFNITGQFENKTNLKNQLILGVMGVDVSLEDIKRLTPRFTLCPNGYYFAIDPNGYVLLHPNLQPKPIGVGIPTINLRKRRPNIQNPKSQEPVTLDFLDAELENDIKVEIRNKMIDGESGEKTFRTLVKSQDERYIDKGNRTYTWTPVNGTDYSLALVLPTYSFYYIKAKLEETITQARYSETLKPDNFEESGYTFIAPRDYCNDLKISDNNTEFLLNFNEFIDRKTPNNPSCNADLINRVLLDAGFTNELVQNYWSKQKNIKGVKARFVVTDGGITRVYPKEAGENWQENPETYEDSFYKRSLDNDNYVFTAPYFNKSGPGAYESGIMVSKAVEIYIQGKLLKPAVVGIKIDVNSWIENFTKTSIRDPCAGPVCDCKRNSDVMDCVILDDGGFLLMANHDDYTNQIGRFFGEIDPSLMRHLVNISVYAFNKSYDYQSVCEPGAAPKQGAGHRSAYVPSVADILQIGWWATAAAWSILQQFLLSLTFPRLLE
T1 sequence (P54289 957-1103 partner limits assumed): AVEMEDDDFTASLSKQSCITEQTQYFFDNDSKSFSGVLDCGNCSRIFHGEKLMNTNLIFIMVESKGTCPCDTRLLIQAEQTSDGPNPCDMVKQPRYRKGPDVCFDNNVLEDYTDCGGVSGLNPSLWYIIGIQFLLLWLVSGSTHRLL
T1 sequence (P54284 whole entry partner): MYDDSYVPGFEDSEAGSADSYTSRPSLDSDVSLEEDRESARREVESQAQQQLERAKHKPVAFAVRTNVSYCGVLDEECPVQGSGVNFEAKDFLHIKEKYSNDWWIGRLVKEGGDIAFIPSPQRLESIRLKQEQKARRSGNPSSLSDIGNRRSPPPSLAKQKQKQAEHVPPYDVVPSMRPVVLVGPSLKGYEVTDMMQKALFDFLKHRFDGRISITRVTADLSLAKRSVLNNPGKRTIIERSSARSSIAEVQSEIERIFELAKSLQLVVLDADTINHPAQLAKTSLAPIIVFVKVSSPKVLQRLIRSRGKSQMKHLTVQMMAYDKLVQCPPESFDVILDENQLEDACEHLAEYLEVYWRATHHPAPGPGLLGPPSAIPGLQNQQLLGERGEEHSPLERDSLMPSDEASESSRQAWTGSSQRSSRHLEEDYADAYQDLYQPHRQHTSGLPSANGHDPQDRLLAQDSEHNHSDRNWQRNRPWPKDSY

IC50 [1]	IC50 [2]	SMILES
570 nM	> 20 µM	N[C@@H]1CCCC[C@@H]1C(=O)N1CCC(N(C2CC2)S(=O)(=O)c2cccc(C(F)(F)F)c2)CC1 (racemic) [Compound 4, rac-N-[1-((1S,2R)-2-Amino-cyclohexanecarbonyl)-piperidin-4-yl]-N-cyclopropyl-3-trifluoromethyl-benzenesulfonamide]
290 nM	> 20 µM	N[C@@H]1CCC[C@@H]1C(=O)N1CCC(N(C2CC2)S(=O)(=O)c2cccc(C(F)(F)F)c2)CC1 (racemic) [Compound 5, rac-N-[1-((1S,2R)-2-Amino-cyclopentanecarbonyl)-piperidin-4-yl]-N-cyclopropyl-3-trifluoromethyl-benzenesulfonamide]
3690 nM	–	CC(C)N(C1CCN(C(=O)[C@H]2CCC[C@H]2N)CC1)S(=O)(=O)c1cccc(C(F)(F)F)c1 (racemic) [rac-N-[1-((1S,2R)-2-amino-cyclopentanecarbonyl)-piperidin-4-yl}-N-isopropyl-3-trifluoromethylbenzenesulfonamide]
2470 nM	–	O=C(CCN1CCC(O)CC1)N1CCC(N(C2CC2)S(=O)(=O)c2cccc(C(F)(F)F)c2)CC1 [Compound 2, N-Cyclopropyl-N-{1-[3-(4-hydroxy-piperidin-1-yl)-propionyl]-piperidin-4-yl}-3-trifluoromethyl-benzenesulfonamide]
3040 nM	–	O=C(CCN[C@H]1CC[C@H](O)CC1)N1CCC(N(C2CC2)S(=O)(=O)c2cccc(C(F)(F)F)c2)CC1 [Compound 3, N-Cyclopropyl-N-{1-[3-(4-hydroxy-cyclohexylamino)-propionyl]-piperidin-4-yl}-3-trifluoromethyl-benzenesulfonamide]
8580 nM	–	O=C(c1ccc(=O)[nH]c1)N1CCC(N(C2CC2)S(=O)(=O)c2cccc(C(F)(F)F)c2)CC1 [Compound 6, N-Cyclopropyl-N-[1-(6-oxo-1,6-dihydro-pyridine-3-carbonyl)-piperidin-4-yl]-3-trifluoromethyl-benzenesulfonamide]
5530 nM	–	O=C(c1ccccn1)N1CCC(N(C2CC2)S(=O)(=O)c2cccc(C(F)(F)F)c2)CC1 [Compound 7, N-Cyclopropyl-N-[1-(pyridine-2-carbonyl)-piperidin-4-yl]-3-trifluoromethyl-benzenesulfonamide]
7250 nM	–	O=C(c1cccnc1)N1CCC(N(C2CC2)S(=O)(=O)c2cccc(C(F)(F)F)c2)CC1 [Compound 8, N-Cyclopropyl-N-[1-(pyridine-3-carbonyl)-piperidin-4-yl]-3-trifluoromethyl-benzenesulfonamide]
8680 nM	–	O=C(c1ccncc1)N1CCC(N(C2CC2)S(=O)(=O)c2cccc(C(F)(F)F)c2)CC1 [Compound 9, N-Cyclopropyl-N-[1-(pyridine-4-carbonyl)-piperidin-4-yl]-3-trifluoromethyl-benzenesulfonamide]
760 nM	3.06 µM	O=C(c1ccccc1[N+](=O)[O-])N1CCC(N(C2CC2)S(=O)(=O)c2cccc(C(F)(F)F)c2)CC1 [Compound 10, N-Cyclopropyl-N-[1-(2-nitro-benzoyl)-piperidin-4-yl]-3-trifluoromethyl-benzenesulfonamide]
680 nM	10 to 20 µM	Nc1ccccc1C(=O)N1CCC(N(C2CC2)S(=O)(=O)c2cccc(C(F)(F)F)c2)CC1 [Compound 11, N-[1-(2-Amino-benzoyl)-piperidin-4-yl]-N-cyclopropyl-3-trifluoromethyl-benzenesulfonamide]
330 nM	> 20 µM	O=C(c1ccccc1NCCO)N1CCC(N(C2CC2)S(=O)(=O)c2cccc(C(F)(F)F)c2)CC1 [Compound 13, N-Cyclopropyl-N-{1-[2-(2-hydroxy-ethylamino)-benzoyl]-piperidin-4-yl}-3-trifluoromethyl-benzenesulfonamide]
190 nM	10 to 20 µM	CC(C)N(C1CCN(C(=O)CNC2CCCCC2)CC1)S(=O)(=O)c1cccc(C(F)(F)F)c1 [Compound 25a, N-[1-(2-Cyclohexylamino-acetyl)-piperidin-4-yl]-N-isopropyl-3-trifluoromethylbenzenesulfonamide]
3350 nM	–	CC(C)N(C1CCN(C(=O)CN2CCCC(O)C2)CC1)S(=O)(=O)c1cccc(C(F)(F)F)c1 (stereo not drawn) [Compound 25b, N-{1-[2-(3-Hydroxy-piperidin-1-yl)-acetyl]-piperidin-4-yl}-N-isopropyl-3-trifluoromethylbenzenesulfonamide]
280 nM	> 20 µM	O=C(CNC1CCCC1)N1CCC(N(C2CC2)S(=O)(=O)c2cccc(C(F)(F)F)c2)CC1 [Compound 25c, N-[1-(2-Cyclopentylamino-acetyl)-piperidin-4-yl]-N-cyclopropyl-3-trifluoromethylbenzenesulfonamide]
1140 nM	–	CC(C)N(C1CCN(C(=O)CN2Cc3ccccc3C2)CC1)S(=O)(=O)c1cccc(C(F)(F)F)c1 [Compound 25d, N-[1-(2-1,3-Dihydro-isoindol-2-yl-acetyl)-piperidin-4-yl]-N-isopropyl-3-trifluoromethylbenzenesulfonamide]
880 nM	> 20 µM	CC(C)N(C1CCN(C(=O)CN2CCCC(F)(F)C2)CC1)S(=O)(=O)c1cccc(C(F)(F)F)c1 [Compound 25e, N-{1-[2-(3,3-Difluoro-piperidin-1-yl)-acetyl]-piperidin-4-yl}-N-isopropyl-3-trifluoromethylbenzenesulfonamide]
3980 nM	7.81 µM	CC(C)N(C1CCN(C(=O)CN2CCC(F)(F)C2)CC1)S(=O)(=O)c1cccc(C(F)(F)F)c1 [Compound 25f, N-{1-[2-(3,3-Difluoro-pyrrolidin-1-yl)-acetyl]-piperidin-4-yl}-N-isopropyl-3-trifluoromethylbenzenesulfonamide]

Source: patent publication US8937181B2, “Benzenesulfonamide compounds and the use thereof” (Purdue Pharma L.P., priority 2006, dated 2015)
